Results: US20180237362A1, “NOVEL POLYGODIAL ANALOGS FOR THE TREATMENT OF CANCER AND OTHER PROLIFERATIVE DISEASES” (THE BOARD OF REGENTS OF THE UNIVERSITY OF TAXAS SYSTEM, priority 2015, published 2018)
Where two headings read alike, the source gives them in different places. One block for each molecule: values may come before it.

Columns and labels:
[1] = test system: cervical cancer cell line HeLa; experiment: Cell viability (Cell Titer 96 Aqueous), HeLa; type: cell-based, human; conditions: 48 hours; potency order P10, polygodial, P3
Source text: Human cancer cell lines were obtained from the American Type Culture Collection (ATCC, Manassas, Va., USA), the European Collection of Cell Culture (ECACC, Salisbury, UK) and the Deutsche Sammlung von Mikroorganismen und Zellkulturen (DSMZ, Braunschweig, Germany). The OSCC cell lines, Cal27 and HSC3 are derived from human primary tongue tumor. Cal27 cells were obtained from the American Type Culture Collection (Rockville, Md.). HSC3 cells were provided by Dr. Brian Schmidt. HeLa cells (cervical cancer cell line) were obtained from ATCC. Cells were cultured in DMEM, containing 10% FBS and 1% penicillin-streptomycin media, at 37° C. in 5% CO2. All cells were authenticated by Genetic DNA Laboratories.
The cytotoxicity of polygodial, P10, P3, and P27 in Cal27, HSC3, and HeLa cells was examined in vitro using a colorimetric assay, Cell Titer 96® Aqueous Non-Radioactive Cell Proliferation Assay. […] GraphPad Prism4 was used to perform statistical analysis.

[2] = test system: U373 human glioma cell line; experiment: Quantitative videomicroscopy, U373; type: cell-based; conditions: at GI50 concentrations (Table 1)
Procedure: FIG. 8. In vitro videomicroscopic analysis of the anticancer effects of 1 and its C12-Wittig derivatives 5 and 13. The U373 human glioma cell line was treated with polygodial, 5 and 13 at their mean GI50 concentrations (Table 1) or left untreated. Videomicroscopy enabled taking pictures of the culture field every 4 minutes. The experiment was conducted once in triplicate. While the morphology of cells treated with 1 was fixed over time, 5 and 13 exerted cytostatic effects on U373 cells.
In an effort to gain insight into possible mechanisms associated with antiproliferative properties of 1 and the C12-Wittig derivatives, the morphological changes in cells treated with these compounds were studied with computer-assisted phase-contrast microscopy (Luchetti et al., 2012) (quantitative videomicroscopy).

[3] = target: T1, vanilloid site of TRPV1 receptor from rats spinal cord membranes (Rattus norvegicus, UniProt O35433); experiment: [3H]-resiniferatoxin binding assay; conditions: 2 nM [3H]-RTX
T1 construct: from tissue; host or cells: rat spinal cord membranes
T1 sequence (O35433 whole entry): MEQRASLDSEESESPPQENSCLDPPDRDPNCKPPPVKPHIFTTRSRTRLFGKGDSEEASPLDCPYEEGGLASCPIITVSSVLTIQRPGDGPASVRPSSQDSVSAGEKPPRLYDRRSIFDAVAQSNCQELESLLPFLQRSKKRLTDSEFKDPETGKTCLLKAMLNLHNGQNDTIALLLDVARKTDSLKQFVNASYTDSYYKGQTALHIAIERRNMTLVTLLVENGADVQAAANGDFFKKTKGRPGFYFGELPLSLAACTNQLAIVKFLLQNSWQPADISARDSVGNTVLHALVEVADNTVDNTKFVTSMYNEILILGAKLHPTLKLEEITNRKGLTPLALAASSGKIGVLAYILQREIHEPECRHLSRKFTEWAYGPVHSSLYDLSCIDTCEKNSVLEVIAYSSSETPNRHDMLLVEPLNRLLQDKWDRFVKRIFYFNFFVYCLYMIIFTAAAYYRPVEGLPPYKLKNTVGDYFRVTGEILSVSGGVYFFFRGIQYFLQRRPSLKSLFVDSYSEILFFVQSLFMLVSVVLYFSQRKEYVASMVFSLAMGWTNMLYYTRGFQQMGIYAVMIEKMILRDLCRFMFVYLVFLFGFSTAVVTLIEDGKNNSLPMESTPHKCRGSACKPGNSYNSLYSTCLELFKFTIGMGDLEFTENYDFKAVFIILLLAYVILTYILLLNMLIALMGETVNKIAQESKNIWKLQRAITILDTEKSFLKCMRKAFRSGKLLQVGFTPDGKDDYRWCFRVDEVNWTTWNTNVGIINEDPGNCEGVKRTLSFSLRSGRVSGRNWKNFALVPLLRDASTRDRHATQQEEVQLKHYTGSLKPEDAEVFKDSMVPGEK
Procedure: To evaluate the possible affinity of different analogues to the vanilloid site of TRPV1, a [^3H]-resiniferatoxin ([^3H]-RTX) binding assay was performed as previously described (Galli et al. 2004 and Lee et al., 2006). Briefly, rats spinal cord were homogenized in buffer A (pH 7.4, 5 mM KCl, 5.8 mM NaCl, 2 mM MgCl2, 0.75 mM CaCl2, 137 mM sucrose, and 10 mM HEPES) and centrifuged for 10 minutes at 1000 g at 4° C. and the supernatant was further centrifuged for 30 min at 35,000 g at 4° C. The resulting pellets were than resuspended in buffer A and frozen until assayed. The binding reaction was performed in a final volume of 500 μL, containing buffer A (plus 0.25 mg/mL bovine serum albumin, BSA), membranes (0.5 mg/mL), and 2 nM [^3H]-RTX in the presence or absence of analogues of 1 (10 μM). For the measurement of the nonspecific binding, 100 μM nonradioactive RTX were included used. The reaction was started by incubating tubes at 37° C. during 60 minutes, and stopped by transferring the tubes to ice bath and adding 100 μg of bovine α1-acid glycoprotein (to reduce nonspecific binding). […] The pellet was used to quantify the scintillation counting. The specific binding was calculated as the difference of the total and nonspecific binding and the results were measured as % of specific binding.

[4] = test system: HeLa cells; experiment: Calcium imaging, HeLa; type: cell-based, human
[5] = test system: human U373 glioblastoma (GBM); experiment: MTT antiproliferative assay, U373; type: cell-based; conditions: 72 h treatment, sextuplicates, read-out: GI50 in vitro values, U373
Procedure: Human mammary carcinoma MCF-7 (ATCC HTB22) cells were cultured in RPMI supplemented with 10% FBS. The U87 cells (ATCC HTB-14) were cultured in DMEM culture medium, while the A549 cells (DSMZ ACC107) were cultured in RPMI culture medium supplemented with 10% heat-inactivated FBS. The GBM Hs683 (ATCC HTB-138) cells were cultivated in DMEM supplemented with 10% FBS. The human uterine sarcoma MES-SA (ATCC CRL1966) and MES-SA/D×5 cells were cultured in RPMI-1640 medium supplemented with 10% FBS with MES SA/D×5 maintained in the presence of 500 nM Doxorubicin (Sigma). SKMEL-28 cells (ATCC HTB72) and U373 GBM cells (ECACC 08061901) were cultured in RPMI culture medium supplemented with 10% heat-inactivated FBS. Cell culture media were supplemented with 4 mM glutamine (Lonza code BE17-605E), 100 μg/mL gentamicin (Lonza code 17-5182), and penicillin-streptomycin (200 units/ml and 200 μg/ml) (Lonza code 17-602E). The MDA-MB-231 (ATCC HTB-26) epithelial mammary adenocarcinoma cells were cultured in Eagle's minimum essential medium (EMEM; Invitrogen) containing 5% fetal calf serum (FCS, Cambrex), 2 mM L-glutamine (Invitrogen), 0.06% HEPES (Invitrogen) and penicillin (50 IU/ml)/streptomycin (50 µg/ml; Invitrogen) at 37° C. in a humidified atmosphere of 5% CO2 in air. Transformed mouse NPCs were cultured in suspension under neurosphere conditions at 37° C. in a humidified atmosphere of […] and 5% CO2 in DMEM F12 (Invitrogen 11320-074) supplemented with 1×B27 supplement (Invitrogen 17504-044), 5% penicillin-streptomycin (Biochrom 10378-017), 10 ng/ml EGF (R&D systems 236-EG), 10 ng/ml FGF (PeproTech 100-18B).
Antiproliferative properties of the synthesized compounds were evaluated by the MTT assay. All compounds were dissolved in DMSO at a concentration of either 100 μM or 50 μM prior to cell treatment. The cells were trypsinized and seeded at various cell concentrations depending on the cell type. The cells were grown for 24 h to 72 h, treated with compounds at concentrations ranging from 0.001 to 100 μM and incubated for 48 or 72 h in 100 or 200 μL media depending on the cell line used. The number of experiments and replicates varied depending on the cell line. Cells treated with 0.1% DMSO were used as a negative control; 1 μM PAO was used as a positive control.
The synthesized C12-Wittig derivatives were evaluated for antiproliferative activities in a panel of cancer cell lines that included apoptosis-resistant human U373 glioblastoma (GBM) (Lefranc et al., 2013), human A549 non-small cell lung cancer (NSCLC) and human SKMEL-28 melanoma (Mathieu et al., 2009) as well as apoptosis-sensitive human Hs683 anaplastic oligodendroglioma (Lefranc et al., 2013) and human MCF-7 breast cancer (Frolova et al., 2013).

GI50 ([5]; Homo sapiens, U373 MG): > 99 µM
Compound: CC1(C)CCC[C@]2(C)[C@@H](C=O)C(C=O)=CC[C@@H]12 [Compound 1, Polygodial]
cancer cell viability, HeLa [1]: reduced cancer cell viability in vitro
morphological effect by videomicroscopy [2]: strong fixative effects
inhibition at 10 µM ([3]; read-out: inhibition of specific binding of [3H]-resiniferatoxin (RTX)): 76%
reversal of calcium influx by capsazepine, HeLa ([4]; CPZ 10 μM): CPZ did not fully reverse calcium influx

Compound: COC(=O)/C=C/C1=CC[C@H]2C(C)(C)CCC[C@]2(C)[C@H]1C=O [Compound 5]
cancer cell viability, HeLa [1]: reduced cancer cell viability in vitro
morphological effect by videomicroscopy [2]: inhibited cancer cell proliferation without inducing cell death
inhibition of specific binding of [3H]-resiniferatoxin (RTX) ([3]; 10 μM): failed to show any activity
calcium influx, HeLa ([4]; polygodial 80 μM, P10 4 μM, P3 50 μM): did not induce calcium influx
GI50 [5]: 22 µM
